Laboratory results from patent US20230302042A1, “METHODS FOR THE PREVENTION OF CHOLESTEROL CRYSTAL EMBOLIZATION WITH CYCLODEXTRINS” (Beren Therapeutics P.B.C., priority 2020, published 2023).

Experiments:
[1] = human subject; intravenous doses 500-1,000 mg/kg every 4 weeks; FIGS. 2A-2C
Method: (§1) A human subject was treated with 2-hydroxypropyl-beta-cyclodextrin with single-ascending doses administered intravenously every 4 weeks according to Table 1 below.
(§2) In this Example, a human subject was treated with 2-hydroxypropyl-beta-cyclodextrin according to Example 1, and plasma levels of 24S-hydroxycholesterol and 27-hydroxycholesterol were measured. […] 27-hydroxycholesterol is an endogenous LXR ligand leading to a downstream anti-inflammatory gene signature which may, in some embodiments, address the detrimental inflammatory response via NLRP3 inflammasome effects of cholesterol crystal embolization. The elevated 27-hydroxycholesterol is also a cellular marker of macrophage activation and increased activity for cholesterol crystal phagocytosis and clearance.

24S-hydroxycholesterol = conditions: human subject; intravenous doses 500-1,000 mg/kg every 4 weeks; FIGS. 2A-2C
Method: as §1, §2

27-hydroxycholesterol = conditions: human subject; intravenous doses 500-1,000 mg/kg every 4 weeks; FIGS. 2A-2C
Method: as §1, §2

ABCA1 = conditions: human subject; intravenous doses 500-1,000 mg/kg every 4 weeks; peripheral blood; FIGS. 3A-3D
Method: as §1
(§3) In this Example, a human subject was treated with 2-hydroxypropyl-beta-cyclodextrin according to Example 1, and mRNA levels of the LXR transcription factor-regulated genes, ABCA1 and ABCG1, were measured. […] ABCA1 and ABCG1 are important cholesterol transporters and are responsible for cholesterol efflux from cells, loading of HDL particles for reverse cholesterol transport (RCT), and excretion via the hepatic pathway, to potentially reduce the cholesterol and cholesterol crystal emboli released into the vasculature and stabilize ruptured atherosclerotic plaque.

ABCG1 = conditions: human subject; intravenous doses 500-1,000 mg/kg every 4 weeks; peripheral blood; FIGS. 3A-3D
Method: as §1, §3

[2] = pre-dose human blood plasma incubated ex vivo with the cyclodextrin; FIG. 1B
Method: (§4) For each dose, whole blood was collected pre-dose, post-dose (line flush), 1 hour post-dose, and 24 hours post-dose. Plasma was separated from the whole blood and subjected to a cholesterol crystal dissolution capacity (CCDC) assay using techniques similar to those described in the literature. The CCDC assay measures the ability of a sample to dissolve cholesterol crystals.
Blood plasma pre-dose was also incubated ex vivo with 2-hydroxypropyl-beta-cyclodextrin and the ability of the plasma to dissolve cholesterol crystals was measured.

[3] = human subject; single-ascending intravenous doses 500, 750, 1,000, 1,000 mg/kg every 4 weeks; plasma pre-dose, post-dose, 1 hour and 24 hours post-dose; FIG. 1A
Method: as §4, with “A human subject was treated with 2-hydroxypropyl-beta-cyclodextrin with single-ascending doses administered intravenously every 4 weeks according to Table 1 below. […] For” for “For”

## 2-hydroxypropyl-beta-cyclodextrin
[1]
  total cholesterol levels in plasma: remained stable
24S-hydroxycholesterol
  plasma level of 24S-hydroxycholesterol: increased plasma levels
27-hydroxycholesterol
  plasma level of 27-hydroxycholesterol: increased plasma levels
ABCA1
  mRNA level of ABCA1: increased mRNA levels
ABCG1
  mRNA level of ABCG1: increased mRNA levels
[2]
  capacity of plasma to dissolve cholesterol crystals after ex vivo incubation: increased capacity
[3]
  capability of blood plasma to dissolve cholesterol crystals (CCDC) after treatment: increased capability
